{"source": "patent US20150274777A1", "about": "“KETOAMIDE IMMUNOPROTEASOME INHIBITORS” (HOFFMANN-LA ROCHE INC., priority 2012, published 2015)", "key": {"β5i": {"target": "T1, β5i (Homo sapiens, UniProt P20618+P28062)", "T1 construct": "protease activity associated with the proteasome complex in cultured cells; endogenous in cells; host or cells: Ramos cells", "assay": "Cell-Based Proteasome Activity/Selectivity Assay (Ramos cells), substrate (ANW)2Rh110", "settings": "highest concentration tested 20 μM, read-out: Ic50 ramos:ac-(anw)2-r110", "summary_of_the_method": "(§1)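 Ramos cells (5×10^4/well in DPBS) were treated with 4-fold compound dilutions (top 20 μM) for 30 min at 37 °C. A 2× mix of 0.025% digitonin, 20 μM of each Rh110 substrate and 0.5 M sucrose was added, then incubated 120 min at room temperature. Rh110 fluorescence was read at 500/519 nm.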"}, "β5c": {"target": "T2, β5c (Homo sapiens, UniProt P20618+P28074)", "T2 construct": "protease activity associated with the proteasome complex in cultured cells; endogenous in cells; host or cells: Ramos cells", "assay": "Cell-Based Proteasome Activity/Selectivity Assay (Ramos cells), substrate (WLA)2Rh110", "settings": "highest concentration tested 20 μM", "summary_of_the_method": "as §1"}, "β2c/2i": {"test_system": "β2c/2i", "assay": "Cell-Based Proteasome Activity/Selectivity Assay (Ramos cells), substrate (KQL)2Rh110", "settings": "highest concentration tested 20 μM", "summary_of_the_method": "as §1"}, "β1i": {"target": "T3, β1i (Homo sapiens, UniProt P28065+P40306)", "T3 construct": "protease activity associated with the proteasome complex in cultured cells; endogenous in cells; host or cells: Ramos cells", "assay": "Cell-Based Proteasome Activity/Selectivity Assay (Ramos cells), substrate (PAL)2Rh110", "settings": "highest concentration tested 20 μM", "summary_of_the_method": "as §1"}, "β1c": {"target": "T4, β1c (Homo sapiens, UniProt P28072+Q99436)", "T4 construct": "protease activity associated with the proteasome complex in cultured cells; endogenous in cells; host or cells: Ramos cells", "assay": "Cell-Based Proteasome Activity/Selectivity Assay (Ramos cells), substrate (LLE)2 Rh110", "settings": "highest concentration tested 20 μM", "summary_of_the_method": "as §1"}, "[1]": {"test_system": "IP10 level in PBMCs stimulated with CpG Type A", "assay": "PBMC IP-10 Assay", "assay_type": "cell-based", "settings": "CpG Type A 2.5 μM", "summary_of_the_method": "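Human PBMCs (~2×10^5/well) preincubated 60 min at 37° C. with titrated compound (1% DMSO final), then stimulated with CpG Type A (ODN 2216) at 2.5 μM final overnight. Supernatant IP-10 quantified by AlphaLISA; viability of remaining cells by ATP luminescence.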"}}, "data": [{"smiles": "C[C@H](NC(=O)N1Cc2ccccc2C1)C(=O)N[C@@H](Cc1ccccc1)C(=O)N[C@@H](Cc1ccccc1)C(=O)C(=O)NCc1ccccc1", "note": "[Example 52, 1,3-Dihydro-isoindole-2-carboxylic acid {(S)-1-[(S)-1-((S)-1-benzyl-2-benzylcarbamoyl-2-oxo-ethylcarbamoyl)-2-phenyl-ethylcarbamoyl]-ethyl}-amide]", "values": [{"measurement": "IC50", "setting": "β5i", "result": 221, "unit": "nM"}, {"measurement": "IC50", "setting": "β5c", "result": 2350, "unit": "nM"}, {"measurement": "IC50", "setting": "β2c/2i", "result": "> 20000", "unit": "nM"}, {"measurement": "IC50", "setting": "β1i", "result": 1530, "unit": "nM"}, {"measurement": "IC50", "setting": "β1c", "result": 10300, "unit": "nM"}, {"measurement": "EC50", "setting": "[1]", "result": 4500, "unit": "nM"}]}, {"smiles": "Cc1cc(C(=O)N[C@@H](C)C(=O)N[C@@H](Cc2ccccc2)C(=O)N[C@@H](Cc2ccccc2)C(=O)C(=O)NCc2ccccc2)n(C)n1", "note": "[Example 53, 2,5-Dimethyl-2H-pyrazole-3-carboxylic acid {(S)-1-[(S)-1-((S)-1-benzyl-2-benzylcarbamoyl-2-oxo-ethylcarbamoyl)-2-phenyl-ethylcarbamoyl]-ethyl}-amide]", "values": [{"measurement": "IC50", "setting": "β5i", "result": 221, "unit": "nM"}, {"measurement": "IC50", "setting": "β5c", "result": 1360, "unit": "nM"}, {"measurement": "IC50", "setting": "β2c/2i", "result": "> 20000", "unit": "nM"}, {"measurement": "IC50", "setting": "β1i", "result": 1780, "unit": "nM"}, {"measurement": "IC50", "setting": "β1c", "result": "> 20000", "unit": "nM"}, {"measurement": "EC50", "setting": "[1]", "result": 4900, "unit": "nM"}]}, {"smiles": "CCn1nccc1C(=O)N[C@@H](C)C(=O)N[C@@H](Cc1ccccc1)C(=O)N[C@@H](Cc1ccccc1)C(=O)C(=O)NCc1ccccc1", "note": "[Example 54, 2-Ethyl-2H-pyrazole-3-carboxylic acid {(S)-1-[(S)-1-((S)-1-benzyl-2-benzylcarbamoyl-2-oxo-ethylcarbamoyl)-2-phenyl-ethylcarbamoyl]-ethyl}-amide]", "values": [{"measurement": "IC50", "setting": "β5i", "result": 66, "unit": "nM"}, {"measurement": "IC50", "setting": "β5c", "result": 1680, "unit": "nM"}, {"measurement": "IC50", "setting": "β2c/2i", "result": "> 20000", "unit": "nM"}, {"measurement": "IC50", "setting": "β1i", "result": 609, "unit": "nM"}, {"measurement": "IC50", "setting": "β1c", "result": 18500, "unit": "nM"}, {"measurement": "EC50", "setting": "[1]", "result": 3450, "unit": "nM"}]}, {"smiles": "C[C@H](NC(=O)c1cc(C(F)(F)F)nn1C)C(=O)N[C@@H](Cc1ccccc1)C(=O)N[C@@H](Cc1ccccc1)C(=O)C(=O)NCc1ccccc1", "note": "[Example 55, 2-Methyl-5-trifluoromethyl-2H-pyrazole-3-carboxylic acid {(S)-1-[(S)-1-((S)-1-benzyl-2-benzylcarbamoyl-2-oxo-ethylcarbamoyl)-2-phenyl-ethylcarbamoyl]-ethyl}-amide]", "values": [{"measurement": "IC50", "setting": "β5i", "result": 176, "unit": "nM"}, {"measurement": "IC50", "setting": "β5c", "result": 5770, "unit": "nM"}, {"measurement": "IC50", "setting": "β2c/2i", "result": "> 20000", "unit": "nM"}, {"measurement": "IC50", "setting": "β1i", "result": 8920, "unit": "nM"}, {"measurement": "IC50", "setting": "β1c", "result": "> 20000", "unit": "nM"}, {"measurement": "EC50", "setting": "[1]", "result": 3880, "unit": "nM"}]}, {"smiles": "C[C@H](NC(=O)OCc1ccccc1)C(=O)NC(CC1CCOCC1)C(=O)N[C@@H](Cc1ccccc1)C(=O)C(=O)NCc1ccccc1", "note": "(stereo partly drawn) [Example 56, {(S)-1-[1-((S)-1-Benzyl-2-benzylcarbamoyl-2-oxo-ethylcarbamoyl)-2-(tetrahydro-pyran-4-yl)-ethylcarbamoyl]-ethyl}-carbamic acid benzyl ester]", "values": [{"measurement": "IC50", "setting": "β5i", "result": 115, "unit": "nM"}, {"measurement": "IC50", "setting": "β5c", "result": 3120, "unit": "nM"}, {"measurement": "IC50", "setting": "β2c/2i", "result": "> 20000", "unit": "nM"}, {"measurement": "IC50", "setting": "β1i", "result": 879, "unit": "nM"}, {"measurement": "IC50", "setting": "β1c", "result": "> 20000", "unit": "nM"}, {"measurement": "EC50", "setting": "[1]", "result": 3230, "unit": "nM"}]}, {"smiles": "C[C@H](NC(=O)OCc1ccccc1)C(=O)NC(CC(F)(F)F)C(=O)N[C@@H](Cc1ccccc1)C(=O)C(=O)NCc1ccccc1", "note": "(stereo partly drawn) [Example 57, {(S)-1-[1-((S)-1-Benzyl-2-benzylcarbamoyl-2-oxo-ethylcarbamoyl)-3,3,3-trifluoro-propylcarbamoyl]-ethyl}-carbamic acid benzyl ester]", "values": [{"measurement": "IC50", "setting": "β5i", "result": 524, "unit": "nM"}, {"measurement": "IC50", "setting": "β5c", "result": 6160, "unit": "nM"}, {"measurement": "IC50", "setting": "β2c/2i", "result": "> 20000", "unit": "nM"}, {"measurement": "IC50", "setting": "β1i", "result": 2730, "unit": "nM"}, {"measurement": "IC50", "setting": "β1c", "result": "> 20000", "unit": "nM"}, {"measurement": "EC50", "setting": "[1]", "result": 5030, "unit": "nM"}]}, {"smiles": "C[C@H](NC(=O)OCc1ccccc1)C(=O)N[C@@H](Cc1ccncc1)C(=O)N[C@@H](Cc1ccccc1)C(=O)C(=O)NCc1ccccc1", "note": "[Example 58, {(S)-1-[(S)-1-((S)-1-Benzyl-2-benzylcarbamoyl-2-oxo-ethylcarbamoyl)-2-pyridin-4-yl-ethylcarbamoyl]-ethyl}-carbamic acid benzyl ester]", "values": [{"measurement": "IC50", "setting": "β5i", "result": 30, "unit": "nM"}, {"measurement": "IC50", "setting": "β5c", "result": 960, "unit": "nM"}, {"measurement": "IC50", "setting": "β2c/2i", "result": "> 20000", "unit": "nM"}, {"measurement": "IC50", "setting": "β1i", "result": 478, "unit": "nM"}, {"measurement": "IC50", "setting": "β1c", "result": "> 20000", "unit": "nM"}, {"measurement": "EC50", "setting": "[1]", "result": 1330, "unit": "nM"}]}]}
